Test results: ChEMBL document CHEMBL4622945, “Synthesis and antiproliferative activity of C- and N-terminal analogues of culicinin D” (Bioorg Med Chem Lett, 2020)
Square brackets hold non-standard residues; d marks the D form. Peptide text beside a SMILES is read from it. * marks the point of attachment. NH((S)CH(Me)CH2NHC2H4OH) = C[C@@H](CNCCO)N*; Alaψ(CH2NMeCH2CH2OH) = C[C@@H](CN(C)CCO)N*; NH((S)CH(Me)CH2NMe2) = C[C@@H](CN(C)C)N*; NH((S)CH(CH3)CH2NHMe) = CNC[C@H](C)N*; Gly(octyl) = CCCCCCCC[C@H](N)C(=O)O; X5 = C[C@@H](N*)[C@@H](O)c1ccccc1; Hyp = O=C(O)[C@@H]1C[C@@H](O)CN1; Cha = N[C@@H](CC1CCCCC1)C(=O)O; Phe(ol) = N[C@H](CO)Cc1ccccc1; Lauroyl = CCCCCCCCCCCC(=O)*; Decanoyl = CCCCCCCCCC(=O)*; Pip = O=C(O)[C@@H]1CCCCN1; X1 = C[C@@H](CN1CCNCC1)N*; X2 = C[C@@H](CN1CCOCC1)N*; Octanoyl = CCCCCCCC(=O)*; Hexanoyl = CCCCCC(=O)*; Alaol = C[C@@H](CO)N*; NHCH2CH2NHMe = CNCCN*; Aib = CC(C)(N)C(=O)O; X3 = C[C@H](CNCCO)N*; Butyryl = CCCC(=O)*; NHCH2CH2OH = OCCN*; βAla = NCCC(=O)O; X4 = OCCNCCN*

Key:
Type in all cases: functional, cell-based
SK-BR-3 = assay: Antiproliferative activity against human SKBR3 cells assessed as reduction in cell growth by SRB assay
MDA-MB-468 = assay: Antiproliferative activity against human MDA-MB-468 cells assessed as reduction in cell growth by SRB assay
NCI-H460 = assay: Antiproliferative activity against human NCI-H460 cells assessed as reduction in cell growth by SRB assay
T47D = assay: Antiproliferative activity against human T47D cells assessed as reduction in cell growth by SRB assay

Row | SMILES | IC50 (SK-BR-3) [nM] | IC50 (MDA-MB-468) [nM] | IC50 (NCI-H460) [nM] | IC50 (T47D) [nM]
1 | CCCCCCCC[C@H](NC(=O)C(C)(C)NC(=O)C(C)(C)NC(=O)[C@H](CC1CCCCC1)NC(=O)[C@H](C)NC(=O)CCC)C(=O)N[C@@H](CC(C)C)C(=O)NC(C)(C)C(=O)N[C@@H](CC(C)C)C(=O)NCCC(=O)N[C@@H](C)CNCCO (Butyryl-A[Cha][Aib][Aib][Gly(octyl)]L[Aib]L[βAla]-{NH((S)CH(Me)CH2NHC2H4OH)}) | 10 | 3 | 2 | 5
2 | CCCCCCCC[C@H](NC(=O)C(C)(C)NC(=O)C(C)(C)NC(=O)[C@H](CC1CCCCC1)NC(=O)[C@@H]1CCCN1C(=O)CCC)C(=O)N[C@@H](CC(C)C)C(=O)NC(C)(C)C(=O)N[C@@H](CC(C)C)C(=O)NCCC(=O)NCCO (Butyryl-P[Cha][Aib][Aib][Gly(octyl)]L[Aib]L[βAla]-NHCH2CH2OH) | 512 | 363 | 223 | 767
3 | CCCCCCCC[C@H](NC(=O)C(C)(C)NC(=O)C(C)(C)NC(=O)[C@H](CC1CCCCC1)NC(=O)[C@@H]1CCCN1C(=O)CCC)C(=O)N[C@@H](CC(C)C)C(=O)NC(C)(C)C(=O)N[C@@H](CC(C)C)C(=O)NCCC(=O)N[C@@H](C)CN1CCNCC1 (Butyryl-P[Cha][Aib][Aib][Gly(octyl)]L[Aib]L[βAla]-X1) | > 1000 | > 1000 | > 1000 | > 1000
4 | CCCCCCCC[C@H](NC(=O)C(C)(C)NC(=O)C(C)(C)NC(=O)[C@H](CC1CCCCC1)NC(=O)[C@@H]1CCCN1C(=O)CCC)C(=O)N[C@@H](CC(C)C)C(=O)NC(C)(C)C(=O)N[C@@H](CC(C)C)C(=O)NCCC(=O)NCCNCCO (Butyryl-P[Cha][Aib][Aib][Gly(octyl)]L[Aib]L[βAla]-X4) | 67 | 10 | 17 | 15
5 | CCCCCCCC[C@H](NC(=O)C(C)(C)NC(=O)C(C)(C)NC(=O)[C@H](CC1CCCCC1)NC(=O)[C@@H]1CCCN1C(=O)CCC)C(=O)N[C@@H](CC(C)C)C(=O)NC(C)(C)C(=O)N[C@@H](CC(C)C)C(=O)NCCC(=O)N[C@H](CO)Cc1ccccc1 (Butyryl-P[Cha][Aib][Aib][Gly(octyl)]L[Aib]L[βAla][Phe(ol)]) | 178 | 144 | 45 | 247
6 | CCCCCCCC[C@H](NC(=O)C(C)(C)NC(=O)C(C)(C)NC(=O)[C@H](CC1CCCCC1)NC(=O)[C@@H]1CCCCN1C(=O)CCC)C(=O)N[C@@H](CC(C)C)C(=O)NC(C)(C)C(=O)N[C@@H](CC(C)C)C(=O)NCCC(=O)N[C@@H](C)CNCCO (Butyryl-[Pip][Cha][Aib][Aib][Gly(octyl)]L[Aib]L[βAla]-{NH((S)CH(Me)CH2NHC2H4OH)}) | 34 | 11 | 9 | 11
7 | CCCCCCCC[C@H](NC(=O)C(C)(C)NC(=O)C(C)(C)NC(=O)[C@H](CC1CCCCC1)NC(=O)[C@@H]1CCCN1)C(=O)N[C@@H](CC(C)C)C(=O)NC(C)(C)C(=O)N[C@@H](CC(C)C)C(=O)NCCC(=O)N[C@@H](C)CNCCO (H-P[Cha][Aib][Aib][Gly(octyl)]L[Aib]L[βAla]-{NH((S)CH(Me)CH2NHC2H4OH)}) | 57 | 10 | 9 | 13
8 | CCCCCCCC[C@H](NC(=O)C(C)(C)NC(=O)C(C)(C)NC(=O)[C@H](CC1CCCCC1)NC(=O)[C@@H]1CCCN1C(=O)CCCCC)C(=O)N[C@@H](CC(C)C)C(=O)NC(C)(C)C(=O)N[C@@H](CC(C)C)C(=O)NCCC(=O)N[C@@H](C)CNCCO (Hexanoyl-P[Cha][Aib][Aib][Gly(octyl)]L[Aib]L[βAla]-{NH((S)CH(Me)CH2NHC2H4OH)}) | 18 | 5 | 4 | 7
9 | CCCCCCCCCCCC(=O)N1CCC[C@H]1C(=O)N[C@@H](CC1CCCCC1)C(=O)NC(C)(C)C(=O)NC(C)(C)C(=O)N[C@@H](CCCCCCCC)C(=O)N[C@@H](CC(C)C)C(=O)NC(C)(C)C(=O)N[C@@H](CC(C)C)C(=O)NCCC(=O)N[C@@H](C)CNCCO (Lauroyl-P[Cha][Aib][Aib][Gly(octyl)]L[Aib]L[βAla]-{NH((S)CH(Me)CH2NHC2H4OH)}) | 73 | 23 | 37 | 63

More lines, now with the values ahead:

Row | IC50 (SK-BR-3) [nM] | IC50 (MDA-MB-468) [nM] | IC50 (NCI-H460) [nM] | IC50 (T47D) [nM] | SMILES
10 | 52 | 13 | 11 | 15 | CCCCCCCC[C@H](NC(=O)C(C)(C)NC(=O)C(C)(C)NC(=O)[C@H](CC1CCCCC1)NC(=O)[C@@H]1CCCN1C(C)=O)C(=O)N[C@@H](CC(C)C)C(=O)NC(C)(C)C(=O)N[C@@H](CC(C)C)C(=O)NCCC(=O)N[C@@H](C)CNCCO (Ac-P[Cha][Aib][Aib][Gly(octyl)]L[Aib]L[βAla]-{NH((S)CH(Me)CH2NHC2H4OH)})
11 | 509 | 336 | 130 | 490 | CCCCCCCC[C@H](NC(=O)C(C)(C)NC(=O)C(C)(C)NC(=O)[C@H](CC1CCCCC1)NC(=O)[C@@H]1CCCN1C(=O)CCC)C(=O)N[C@@H](CC(C)C)C(=O)NC(C)(C)C(=O)N[C@@H](CC(C)C)C(=O)NCCC(=O)N[C@@H](C)CO (Butyryl-P[Cha][Aib][Aib][Gly(octyl)]L[Aib]L[βAla]-Alaol)
12 | 27 | 5 | 10 | 8 | CCCCCCCC[C@H](NC(=O)C(C)(C)NC(=O)C(C)(C)NC(=O)[C@H](CC1CCCCC1)NC(=O)[C@@H]1CCCN1C(=O)CCC)C(=O)N[C@@H](CC(C)C)C(=O)NC(C)(C)C(=O)N[C@@H](CC(C)C)C(=O)NCCC(=O)NCCNC (Butyryl-P[Cha][Aib][Aib][Gly(octyl)]L[Aib]L[βAla]-NHCH2CH2NHMe)
13 | > 1000 | > 1000 | > 1000 | > 1000 | CCCCCCCC[C@H](NC(=O)C(C)(C)NC(=O)C(C)(C)NC(=O)[C@H](CC1CCCCC1)NC(=O)[C@@H]1CCCN1C(=O)CCC)C(=O)N[C@@H](CC(C)C)C(=O)NC(C)(C)C(=O)N[C@@H](CC(C)C)C(=O)NCCC(=O)O (Butyryl-P[Cha][Aib][Aib][Gly(octyl)]L[Aib]L[βAla]-OH)
14 | 99 | 59 | 34 | 36 | CCCCCCCC[C@H](NC(=O)C(C)(C)NC(=O)C(C)(C)NC(=O)[C@H](CC1CCCCC1)NC(=O)[C@@H]1CCCN1C(=O)CCC)C(=O)N[C@@H](CC(C)C)C(=O)NC(C)(C)C(=O)N[C@@H](CC(C)C)C(=O)NCCC(=O)N[C@@H](C)CN1CCOCC1 (Butyryl-P[Cha][Aib][Aib][Gly(octyl)]L[Aib]L[βAla]-X2)
15 | 205 | 31 | 50 | 31 | CCCCCCCC[C@H](NC(=O)C(C)(C)NC(=O)C(C)(C)NC(=O)[C@H](CC1CCCCC1)NC(=O)[C@@H]1CCCN1C(=O)CCC)C(=O)N[C@@H](CC(C)C)C(=O)NC(C)(C)C(=O)N[C@@H](CC(C)C)C(=O)NCCC(=O)N[C@H](C)CNCCO (Butyryl-P[Cha][Aib][Aib][Gly(octyl)]L[Aib]L[βAla]-X3)
16 | 344 | 242 | 89 | 471 | CCCCCCCC[C@H](NC(=O)C(C)(C)NC(=O)C(C)(C)NC(=O)[C@H](CC1CCCCC1)NC(=O)[C@@H]1CCCN1C(=O)CCC)C(=O)N[C@@H](CC(C)C)C(=O)NC(C)(C)C(=O)N[C@@H](CC(C)C)C(=O)NCCC(=O)N[C@H](C)[C@@H](O)c1ccccc1 (Butyryl-P[Cha][Aib][Aib][Gly(octyl)]L[Aib]L[βAla]-X5)
17 | 8 | 2 | 2 | 3 | CCCCCCCC[C@H](NC(=O)C(C)(C)NC(=O)C(C)(C)NC(=O)[C@H](CC1CCCCC1)NC(=O)[C@@H]1CCCN1C(=O)CCC)C(=O)N[C@@H](CC(C)C)C(=O)NC(C)(C)C(=O)N[C@@H](CC(C)C)C(=O)NCCC(=O)N[C@@H](C)CN(C)CCO (Butyryl-P[Cha][Aib][Aib][Gly(octyl)]L[Aib]L[βAla]-{Alaψ(CH2NMeCH2CH2OH)})
18 | 13 | 3 | 3 | 5 | CCCCCCCC[C@H](NC(=O)C(C)(C)NC(=O)C(C)(C)NC(=O)[C@H](CC1CCCCC1)NC(=O)[C@@H]1CCCN1C(=O)CCC)C(=O)N[C@@H](CC(C)C)C(=O)NC(C)(C)C(=O)N[C@@H](CC(C)C)C(=O)NCCC(=O)N[C@@H](C)CNC (Butyryl-P[Cha][Aib][Aib][Gly(octyl)]L[Aib]L[βAla]-{NH((S)CH(CH3)CH2NHMe)})
19 | 10 | 4 | 4 | 6 | CCCCCCCC[C@H](NC(=O)C(C)(C)NC(=O)C(C)(C)NC(=O)[C@H](CC1CCCCC1)NC(=O)[C@@H]1CCCN1C(=O)CCC)C(=O)N[C@@H](CC(C)C)C(=O)NC(C)(C)C(=O)N[C@@H](CC(C)C)C(=O)NCCC(=O)N[C@@H](C)CN(C)C (Butyryl-P[Cha][Aib][Aib][Gly(octyl)]L[Aib]L[βAla]-{NH((S)CH(Me)CH2NMe2)})
20 | 124 | 37 | 40 | 38 | CCCCCCCC[C@H](NC(=O)C(C)(C)NC(=O)C(C)(C)NC(=O)[C@H](CC1CCCCC1)NC(=O)[C@@H]1C[C@@H](O)CN1C(=O)CCC)C(=O)N[C@@H](CC(C)C)C(=O)NC(C)(C)C(=O)N[C@@H](CC(C)C)C(=O)NCCC(=O)N[C@@H](C)CNCCO (Butyryl-[Hyp][Cha][Aib][Aib][Gly(octyl)]L[Aib]L[βAla]-{NH((S)CH(Me)CH2NHC2H4OH)})
21 | 20 | 6 | 9 | 13 | CCCCCCCCCC(=O)N1CCC[C@H]1C(=O)N[C@@H](CC1CCCCC1)C(=O)NC(C)(C)C(=O)NC(C)(C)C(=O)N[C@@H](CCCCCCCC)C(=O)N[C@@H](CC(C)C)C(=O)NC(C)(C)C(=O)N[C@@H](CC(C)C)C(=O)NCCC(=O)N[C@@H](C)CNCCO (Decanoyl-P[Cha][Aib][Aib][Gly(octyl)]L[Aib]L[βAla]-{NH((S)CH(Me)CH2NHC2H4OH)})
22 | 15 | 4 | 4 | 7 | CCCCCCCC[C@H](NC(=O)C(C)(C)NC(=O)C(C)(C)NC(=O)[C@H](CC1CCCCC1)NC(=O)[C@@H]1CCCN1C(=O)CCCCCCC)C(=O)N[C@@H](CC(C)C)C(=O)NC(C)(C)C(=O)N[C@@H](CC(C)C)C(=O)NCCC(=O)N[C@@H](C)CNCCO (Octanoyl-P[Cha][Aib][Aib][Gly(octyl)]L[Aib]L[βAla]-{NH((S)CH(Me)CH2NHC2H4OH)})
